Test results reported in patent US8952024B2, “Herbicidal pyrimidone derivatives” (E I du Pont de Nemours and Company, priority 2009, dated 2015).

Key:
Assay in all cases: Test B pre-/postemergence plant response
Format in all cases: in vivo
[1] = system: large crabgrass (Digitaria sanguinalis); settings: for Crabgrass, Large plant response rating (0 to 100 scale): 62 g ai/ha, postemergence, 0 is no effect, 100 is complete control; for Plant response rating, Crabgrass, Large: Postemergence
Outline: (§1)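 Steps: sow seed in loam–sand soil and spray preemergence, or grow plants in peat-based medium to 1–4 leaves (2–18 cm) and spray postemergence; formulation is non-phytotoxic solvent plus surfactant; hold in greenhouse 13–15 days; score visually vs controls, 0 = no effect, 100 = complete control.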

[2] = system: velvetleaf (Abutilon theophrasti); settings: for Velvetleaf plant response rating (0 to 100 scale): 62 g ai/ha, postemergence, 0 is no effect, 100 is complete control; for Plant response rating, Velvetleaf: Postemergence
Outline: as §1

[3] = system: goosegrass (Eleusine indica); settings: for Goosegrass plant response rating (0 to 100 scale): 62 g ai/ha, postemergence, 0 is no effect, 100 is complete control; for Plant response rating, Goosegrass: Postemergence
Outline: as §1

[4] = system: Italian ryegrass (Lolium multiflorum); settings: for Ryegrass, Italian plant response rating (0 to 100 scale): 62 g ai/ha, postemergence, 0 is no effect, 100 is complete control; for Plant response rating, Ryegrass, Italian: Postemergence
Outline: as §1

[5] = system: downy bromegrass (Bromus tectorum); settings: for Bromegrass, Downy plant response rating (0 to 100 scale): 62 g ai/ha, postemergence, 0 is no effect, 100 is complete control; for Plant response rating, Bromegrass, Downy: Postemergence
Outline: as §1

[6] = system: pigweed (Amaranthus retroflexus); settings: for Pigweed plant response rating (0 to 100 scale): 62 g ai/ha, postemergence, 0 is no effect, 100 is complete control; for Plant response rating, Pigweed: Postemergence
Outline: as §1

[7] = system: yellow nutsedge (Cyperus esculentus); settings: for Nutsedge, Yellow plant response rating (0 to 100 scale): 62 g ai/ha, postemergence, 0 is no effect, 100 is complete control; for Plant response rating, Nutsedge, Yellow: Postemergence
Outline: as §1

[8] = system: wheat (Triticum aestivum); settings: for Wheat plant response rating (0 to 100 scale): 62 g ai/ha, postemergence, 0 is no effect, 100 is complete control; for Plant response rating, Wheat: Postemergence
Outline: as §1

[9] = system: Surinam grass (Brachiaria decumbens); settings: for Surinam Grass plant response rating (0 to 100 scale): 62 g ai/ha, postemergence, 0 is no effect, 100 is complete control; for Plant response rating, Surinam Grass: Postemergence
Outline: as §1

[10] = system: ragweed (common ragweed, Ambrosia elatior); settings: for Ragweed plant response rating (0 to 100 scale): 62 g ai/ha, postemergence, 0 is no effect, 100 is complete control; for Plant response rating, Ragweed: Postemergence
Outline: as §1

[11] = system: lambsquarters (Chenopodium album); settings: for Lambsquarters plant response rating (0 to 100 scale): 62 g ai/ha, postemergence, 0 is no effect, 100 is complete control; for Plant response rating, Lambsquarters: Postemergence
Outline: as §1

[12] = system: green foxtail (Setaria viridis); settings: for Foxtail, Green plant response rating (0 to 100 scale): 62 g ai/ha, postemergence, 0 is no effect, 100 is complete control; for Plant response rating, Foxtail, Green: Postemergence
Outline: as §1

[13] = system: woolly cupgrass (Eriochloa villosa); settings: for Cupgrass, Woolly plant response rating (0 to 100 scale): 62 g ai/ha, postemergence, 0 is no effect, 100 is complete control; for Plant response rating, Cupgrass, Woolly: Postemergence
Outline: as §1

[14] = 31 g ai/ha, 0 to 100 scale (0 no effect, 100 complete control)
[15] = 125 g ai/ha, scale 0 to 100 (0 no effect, 100 complete control)
[16] = 250 g ai/ha, scale 0 to 100 (0 no effect, 100 complete control), 13 to 15 days

COCCn1c(-c2cccc(Cl)c2)ncc(C(=O)C2=C(O)CCCC2=O)c1=O [Compound 147]
98: Plant response rating, Ragweed [10, 16] | Plant response rating, Lambsquarters [11, 15]
20: Plant response rating, Ragweed [10, 14]
40: Plant response rating, Ryegrass, Italian [4, 16] | Plant response rating, Foxtail, Green [12, 14]
85: Plant response rating, Crabgrass, Large [1, 15] | Plant response rating, Pigweed [6, 14] | Plant response rating, Lambsquarters [11, 14]
65: Surinam Grass plant response rating (0 to 100 scale) ([9]; 13 to 15 days) | Foxtail, Green plant response rating (0 to 100 scale) ([12]; 13 to 15 days) | Plant response rating, Cupgrass, Woolly [13, 14]
100: Plant response rating, Velvetleaf [2, 16] | Plant response rating, Pigweed [6, 15] | Plant response rating, Pigweed [6, 16] | Plant response rating, Lambsquarters [11, 16]
35: Plant response rating, Goosegrass [3, 14]
30: Plant response rating, Ryegrass, Italian [4, 15]
50: Plant response rating, Nutsedge, Yellow [7, 14] | Plant response rating, Surinam Grass [9, 14]
60: Plant response rating, Crabgrass, Large [1, 14] | Plant response rating, Velvetleaf [2, 14] | Nutsedge, Yellow plant response rating (0 to 100 scale) ([7]; 13 to 15 days)
80: Velvetleaf plant response rating (0 to 100 scale) ([2]; 13 to 15 days) | Plant response rating, Goosegrass [3, 15] | Plant response rating, Foxtail, Green [12, 15] | Plant response rating, Cupgrass, Woolly [13, 15] | Plant response rating, Cupgrass, Woolly [13, 16]
90: Plant response rating, Crabgrass, Large [1, 16] | Plant response rating, Ragweed [10, 15] | Plant response rating, Foxtail, Green [12, 16]
95: Plant response rating, Velvetleaf [2, 15] | Plant response rating, Goosegrass [3, 16] | Pigweed plant response rating (0 to 100 scale) ([6]; 13 to 15 days) | Lambsquarters plant response rating (0 to 100 scale) ([11]; 13 to 15 days)
0: Plant response rating, Bromegrass, Downy [5, 14] | Plant response rating, Wheat [8, 14]
5: Ryegrass, Italian plant response rating (0 to 100 scale) ([4]; 13 to 15 days) | Plant response rating, Ryegrass, Italian [4, 14] | Bromegrass, Downy plant response rating (0 to 100 scale) ([5]; 13 to 15 days) | Plant response rating, Bromegrass, Downy [5, 15] | Wheat plant response rating (0 to 100 scale) ([8]; 13 to 15 days) | Plant response rating, Wheat [8, 15]
75: Crabgrass, Large plant response rating (0 to 100 scale) ([1]; 13 to 15 days) | Plant response rating, Nutsedge, Yellow [7, 16] | Plant response rating, Surinam Grass [9, 15] | Plant response rating, Surinam Grass [9, 16] | Ragweed plant response rating (0 to 100 scale) ([10]; 13 to 15 days)
10: Plant response rating, Bromegrass, Downy [5, 16] | Plant response rating, Wheat [8, 16]
70: Goosegrass plant response rating (0 to 100 scale) ([3]; 13 to 15 days) | Plant response rating, Nutsedge, Yellow [7, 15] | Cupgrass, Woolly plant response rating (0 to 100 scale) ([13]; 13 to 15 days)

CCCn1c(-c2cc(F)cc(F)c2)ncc(C(=O)C2=C(O)CCCC2=O)c1=O [Compound 152]
85: Crabgrass, Large plant response rating (0 to 100 scale) ([1]; 13 to 15 days) | Plant response rating, Velvetleaf [2, 14] | Goosegrass plant response rating (0 to 100 scale) ([3]; 13 to 15 days) | Plant response rating, Bromegrass, Downy [5, 16] | Plant response rating, Wheat [8, 15] | Surinam Grass plant response rating (0 to 100 scale) ([9]; 13 to 15 days) | Plant response rating, Lambsquarters [11, 14]
90: Plant response rating, Wheat [8, 16] | Plant response rating, Surinam Grass [9, 15]
55: Bromegrass, Downy plant response rating (0 to 100 scale) ([5]; 13 to 15 days)
100: Plant response rating, Velvetleaf [2, 15] | Plant response rating, Velvetleaf [2, 16] | Plant response rating, Pigweed [6, 15] | Plant response rating, Pigweed [6, 16] | Plant response rating, Lambsquarters [11, 16] | Plant response rating, Foxtail, Green [12, 16] | Plant response rating, Cupgrass, Woolly [13, 16]
50: Wheat plant response rating (0 to 100 scale) ([8]; 13 to 15 days)
65: Plant response rating, Nutsedge, Yellow [7, 14]
5: Plant response rating, Ryegrass, Italian [4, 14]
80: Plant response rating, Goosegrass [3, 14] | Plant response rating, Ryegrass, Italian [4, 16] | Plant response rating, Nutsedge, Yellow [7, 15] | Plant response rating, Nutsedge, Yellow [7, 16] | Ragweed plant response rating (0 to 100 scale) ([10]; 13 to 15 days)
60: Plant response rating, Bromegrass, Downy [5, 15] | Plant response rating, Ragweed [10, 14]
95: Plant response rating, Crabgrass, Large [1, 15] | Plant response rating, Crabgrass, Large [1, 16] | Velvetleaf plant response rating (0 to 100 scale) ([2]; 13 to 15 days) | Plant response rating, Goosegrass [3, 15] | Plant response rating, Pigweed [6, 14] | Plant response rating, Surinam Grass [9, 16] | Plant response rating, Ragweed [10, 15] | Lambsquarters plant response rating (0 to 100 scale) ([11]; 13 to 15 days) | Plant response rating, Cupgrass, Woolly [13, 14]
98: Plant response rating, Goosegrass [3, 16] | Pigweed plant response rating (0 to 100 scale) ([6]; 13 to 15 days) | Plant response rating, Ragweed [10, 16] | Plant response rating, Lambsquarters [11, 15] | Plant response rating, Foxtail, Green [12, 15] | Cupgrass, Woolly plant response rating (0 to 100 scale) ([13]; 13 to 15 days) | Plant response rating, Cupgrass, Woolly [13, 15]
35: Plant response rating, Wheat [8, 14]
30: Ryegrass, Italian plant response rating (0 to 100 scale) ([4]; 13 to 15 days) | Plant response rating, Bromegrass, Downy [5, 14]
75: Plant response rating, Crabgrass, Large [1, 14] | Nutsedge, Yellow plant response rating (0 to 100 scale) ([7]; 13 to 15 days) | Plant response rating, Surinam Grass [9, 14] | Foxtail, Green plant response rating (0 to 100 scale) ([12]; 13 to 15 days) | Plant response rating, Foxtail, Green [12, 14]
45: Plant response rating, Ryegrass, Italian [4, 15]
